{
  "source": "paper PMC8556396",
  "about": "“Statin-mediated disruption of Rho GTPase prenylation and activity inhibits respiratory syncytial virus infection” (Communications Biology, 2021)",
  "key": {"RSV-GFP [1]": {"tested_on": "RSV-GFP", "test": "microbe, parasite or virus in culture", "format": "cell-based, Respiratory syncytial virus", "in_short": "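Cells infected with RSV-GFP (MOI 0.5) for 90 min in serum-free medium; library compounds added within 1 h of infection at 10 µM final (0.1% DMSO). At 48 h p.i., infection rate was imaged as fraction of nuclei within GFP area, with mean nuclear intensity and size serving as the viability measure.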"}, "RSV A2 [2]": {"tested_on": "RSV A2", "test": "Immunofluorescence staining and microscopy of RSV F and N;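 as to RSV N intensity (a.u.): fluorescence normalized to total nuclear count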", "quoted_text": "HEp-2 cells were seeded to No. 1 glass coverslips (1014355117NR1, Thermo Fisher Scientific) for high-resolution confocal microscopy, or black, flat, microclear-bottom 96-well plates (655096, Greiner Bio-One) for high-throughput quantification of RSV F and N immunofluorescence. Cells were infected with RSV A2 (MOI 0.5). At 48 h p.i., cells were fixed in 4% paraformaldehyde for 30 min and permeabilized with 0.3% Triton X-100 for 10 min at room temperature. F and N proteins were probed using mouse anti-RSV F (RSV3216) and mouse anti-RSV N (RSV3132) mAbs (Bio-Rad Antibodies) diluted 1:500 in PBS + 0.1% Tween-20 (PBST), or mouse anti-RSV F mAb Alexa Fluor 488 conjugate (Millipore Sigma, 133/1H) diluted 1:200 in PBST over a 1-h incubation at room temperature. This was followed by detection with secondary anti-mouse Fab fragments conjugated to Alexa Fluor 488 (4408) or 647 (4410) (Cell Signaling Technology) diluted 1:1000 in PBST over a 1-h incubation at room temperature. Fluorescent images were acquired using either the Cellomics ArrayScan VTI HCS Reader at ×10 magnification (for quantification) or Olympus IX81 Spinning Disk Confocal microscope at ×60 magnification with oil immersion (for high-resolution images). F and N immunofluorescence was quantified in CellProfiler and normalized to total nuclear count."}, "[3]": {"tested_on": "prenylated proteins (small GTPases)", "test": "Measurement of protein prenylation by click chemistry", "format": "cell-based", "details": "for GAPDH Normalized Intensity, Farnesylation / GAPDH Normalized Intensity, Geranylgeranylation / Raw Integrated Intensity, Farnesylation / Raw Integrated Intensity, Geranylgeranylation: + statin (atorvastatin 3.5 µM)", "description": "HEp-2 cells were cultured in the presence of farnesyl alcohol azide (FAA) (SC-294586, Santa Cruz Biotechnology) or geranylgeranyl alcohol azide (GGAA) (C10249, Thermo Fisher Scientific) at a final concentration of 25 µM diluted in 10 mM aqueous NH4OH. Cells were infected with RSV A2 (MOI 0.5) and treated with drugs 2 h post-viral exposure. Cell lysis was performed on ice in RIPA buffer 48 h p.i., and prenylated proteins were reacted with biotin-PEG4-alkyne using the Click-iT Protein Reaction Buffer Kit (C10276, Thermo Fisher Scientific) as per the manufacturer’s protocol. Prenylated proteins in the processed samples were then visualized by western blot using a streptavidin-HRP conjugate (RPN1231, Cytiva) and Clarity ECL Substrate (1705061, Bio-Rad). Relative protein levels were quantified by densitometry in ImageJ (v1.52b)."}, "RSV A2 [4]": {"tested_on": "RSV A2", "test": "Western blot of total viral protein levels (pan-RSV antibody)", "format": "cell-based, Respiratory syncytial virus", "details": "24 h p.i.", "description": "Prior studies in HEp-2 cells have shown that RSV mRNA and proteins can be detected 4–6 h p.i., while assembly is initiated roughly 10–12 h p.i., and mature viral filaments can be observed at the cell surface 16–18 h p.i.[26]–[28]. […] To verify this finding, a traditional plaque assay was performed to quantify infectious virus production from the supernatants of statin-treated RSV A2-infected HEp-2 cells. […] Lysates were also collected from RSV A2-infected HEp-2 cells (MOI 0.5) 24 h p.i. to probe viral protein expression by western blot. […] Changes to the expression and localization of the viral fusion glycoprotein (F) and nucleoprotein (N) were visualized by high-resolution confocal microscopy.\nBox plots indicate the complete range (whiskers), interquartile range (box), and median (line) of measurements. […] Blots were stained using a pan-RSV polyclonal antibody (B65860G) that detects all viral antigens (see Supplementary Fig. 2). GAPDH controls were processed on a parallel blot with the same samples and protein load. Values are reported as means ± SEM (n = 3 cell lysates). d High-resolution confocal microscopy of the F (green) and N (magenta) proteins in RSV A2-infected HEp-2 cells (MOI 0.5). […] Scale bars = 20 µm. Statistics were calculated by a one-way ANOVA with a Dunnett’s multiple comparisons post hoc test (*P < 0.05, ***P < 0.001, ****P < 0.0001).\nSupplementary Figure 2. Changes to viralprotein expression by statin or Rho GTPase inhibitor treatment. HEp-2 cells were infected with […]\npost-viralexposure. Cell lysates were collected 24 h p.i.and viralprotein expression was probed using a pan-RSV polyclonal antibody (B65860G) which detects allviralantigens (n ≥2 cell lysates).GAPDH controlswere processed on parallelblots withthe same samples and protein load. […]"}, "HEp-2 cells": {"tested_on": "HEp-2 cells", "test": "In vitro cytotoxicity assay (MTT)", "format": "cell-based"}, "RSV-GFP [5]": {"tested_on": "RSV-GFP", "format": "cell-based, Respiratory syncytial virus", "description": "WD-PNECs were cultured as per the referenced protocol. Using a sterile cytology brush, nasal scrapings were obtained from healthy volunteers with no known history of lung disease or respiratory medication use. Cells were then seeded on a collagen-coated flask and maintained in Bronchial Epithelial Cell Growth Medium (BEGM) (CC-3170, Lonza) or PneumaCult-Ex (05008, […] Technologies). Upon reaching 70% confluency, cells were passaged and seeded on collagen-coated transwell inserts (6.5 mm diameter, 0.4 µm pore size) (3413, Corning). An air–liquid interface was generated by removing media on the apical side of the cells and replacing the remaining media with PneumaCult-ALI media (05001, […] Technologies). By week 3, cells were differentiated with a ciliated phenotype. Transepithelial resistance was quantified using an ohmmeter (World Precision Instruments) to evaluate epithelial barrier function prior to experimentation. Cells were apically infected with RSV-GFP (MOI 0.01) and infection rates were quantified from GFP signal."}},
  "note": "“And” between values parts separate entries of the source, which are not always exact repeats. Identical values can stand only once. Counter-ions that a name gives are not always drawn.",
  "data": [
    {"smiles": "CC(C)c1c(C(=O)Nc2ccccc2)c(-c2ccccc2)c(-c2ccc(F)cc2)n1CC[C@@H](O)C[C@@H](O)CC(=O)O", "note": "[Atorvastatin, Atorvastatin calcium salt trihydrate]", "values": [
      {"measurement": "RSV inhibition in the screen", "setting": "RSV-GFP [1]; HEp-2, RSV-GFP", "result": "inhibit RSV at low micromolar concentrations"},
      {"measurement": "inhibition at 10 µM", "setting": "RSV-GFP [1]; human respiratory syncytial virus, HEp-2, read-out: RSV-GFP inhibition (%)", "result": 56.4, "unit": "%"},
      {"measurement": "RSV N intensity (a.u.)", "setting": "RSV A2 [2]; Fig 5C, statin alone: atorvastatin 3.5 uM, simvastatin 1.5 uM", "result": "0.7327 a.u. and 0.5028 a.u. and 0.4468 a.u. and 0.7381 a.u."},
      {"measurement": "effect of atorvastatin co-treatment with CN04", "setting": "RSV A2 [2]; atorvastatin 3.5 µM with CN04 1.0 µM", "result": "negated the pro-viral effects of Rho GTPase activation"},
      {"measurement": "GAPDH Normalized Intensity, Farnesylation", "setting": "[3]; + RSV", "result": "1.959 and 2.027"},
      {"measurement": "GAPDH Normalized Intensity, Geranylgeranylation", "setting": "[3]; + RSV", "result": "0.9753 and 1.167"},
      {"measurement": "Raw Integrated Intensity, Farnesylation", "setting": "[3]; + RSV", "result": "2027541 and 2238487"},
      {"measurement": "Raw Integrated Intensity, Geranylgeranylation", "setting": "[3]; + RSV", "result": "1062035 and 1238827"},
      {"measurement": "GAPDH Normalized Intensity, Farnesylation", "setting": "[3]; - RSV", "result": "1.992 and 1.8833"},
      {"measurement": "GAPDH Normalized Intensity, Geranylgeranylation", "setting": "[3]; - RSV", "result": "0.8805 and 0.8849"},
      {"measurement": "Raw Integrated Intensity, Geranylgeranylation", "setting": "[3]; - RSV", "result": "899910 and 921628"},
      {"measurement": "Raw Integrated Intensity, Farnesylation", "setting": "[3]; - RSV, one value per lane", "result": "1842503 and 1809411"},
      {"measurement": "effect on virus-induced small GTPase prenylation", "setting": "[3]; atorvastatin 3.5 µM, 48 h p.i.", "result": "largely mitigate these virus-induced increases to small GTPase prenylation"},
      {"measurement": "Total viral protein levels (GAPDH normalized)", "setting": "RSV A2 [4]; MOI 0.5, atorvastatin 3.5 uM, simvastatin 1.5 uM, one value per lysate", "result": "1.385 and 1.458 and 1.299"},
      {"measurement": "total viral protein levels by western blot", "setting": "RSV A2 [4]; atorvastatin 3.5 µM, simvastatin 1.5 µM, EHT 1864 20.0 µM", "result": "decrease in total viral protein levels"},
      {"measurement": "cellular viability by MTT assay at EC50", "setting": "HEp-2 cells", "result": "no significant difference from baseline"},
      {"measurement": "doses with significant reduction in viability", "setting": "HEp-2 cells; human", "result": "greater than 10.0 µM"},
      {"measurement": "reduction of RSV-GFP infection", "setting": "RSV-GFP [5]; atorvastatin 5.0 µM, 72 h post-infection, mean ± SEM", "result": "67.4 ± 11.5", "unit": "%"},
      {"measurement": "cellular viability of PNECs", "setting": "RSV-GFP [5]; microscopic appearance and barrier integrity", "result": "Cellular viability remained intact"}
    ]}
  ]
}
